Earlier results in patent US20230390244A1, “MODIFIED RELEASE COMPOSITIONS COMPRISING MELATONIN” (Inventia Healthcare Limited, priority 2020, published 2023).

How the values were obtained:
[1] = not given; remark: listed apart in the source

time within which plasma concentrations decline (immediate-release formulation, depending on dose): ≤ 1.5 h
half-life (in vivo): 40 to 50 min
solubility in organic solvents ([1]; acetone, ethyl acetate and methanol): soluble
solubility in water ([1]; water): slightly soluble
SMILES: COc1ccc2[nH]cc(CCNC(C)=O)c2c1 [Melatonin, N-acetyl-5-methoxytryptamine]
